In patent US8372865B2, “Dihydropyridone amides as P2X7 modulators” (Roche Palo Alto LLC, priority 2008, dated 2013):

Target: T1, P2X7 receptor (UniProt Q99572)
T1 sequence (Q99572 1-595): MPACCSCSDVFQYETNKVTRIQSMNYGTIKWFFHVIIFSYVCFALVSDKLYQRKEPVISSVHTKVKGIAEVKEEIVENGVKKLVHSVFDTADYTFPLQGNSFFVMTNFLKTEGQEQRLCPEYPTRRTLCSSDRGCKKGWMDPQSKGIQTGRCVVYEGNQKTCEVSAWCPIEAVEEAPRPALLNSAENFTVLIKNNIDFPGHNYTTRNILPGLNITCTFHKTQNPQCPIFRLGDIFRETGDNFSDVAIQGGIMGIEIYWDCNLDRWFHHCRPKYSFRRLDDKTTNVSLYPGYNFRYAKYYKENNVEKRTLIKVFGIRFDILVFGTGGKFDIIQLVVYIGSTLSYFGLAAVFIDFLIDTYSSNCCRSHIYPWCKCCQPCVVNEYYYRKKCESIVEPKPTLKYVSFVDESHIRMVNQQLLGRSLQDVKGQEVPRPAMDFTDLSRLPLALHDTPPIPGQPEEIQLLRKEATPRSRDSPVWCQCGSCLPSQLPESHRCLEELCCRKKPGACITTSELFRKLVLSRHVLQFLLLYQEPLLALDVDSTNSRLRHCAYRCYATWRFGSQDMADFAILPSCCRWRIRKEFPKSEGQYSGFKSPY
Assay: pKi of Table 1 (assay not stated)
Assay type: cell-based
Description: Intracellular Calcium Flux (FLIPR) Assay
Stock solutions of compounds were prepared from powders as a 10 mM DMSO stock solution. These solutions were stored at RT during the two week period of these experiments to prevent freeze-thaw of the DMSO stocks. The DMSO stocks were added to the appropriate assay buffer at a concentration of 10 μM, and then diluted serially to the final concentrations that were tested. […] The aqueous solutions of compounds as well as ATP (Sigma A7699) and BzATP (Sigma B6396) were prepared fresh for each day of experiment.
1321N1 cells stably expressing the full length human P2X7 gene (1321N1-hP2X7) and HEK293 cells stably expressing the full length rat P2X7 gene (HEK293-rP2X7) were obtained from the Roche Cell Culture Facility. 1321N1-hP2X7 cells were grown in Dulbecco's Modified Eagle's Medium (DMEM) high glucose supplemented with 10% FBS and 250 μg/mL G418. HEK293-rP2X7 cells were grown in DMEM/F-12 supplemented with 10% FBS, 1 mM CaCl2, 2 mM MgCl2, 2 mM L-Glutamine and 500 μg/ml G418. Cells were split such that they never became>70% confluent.
On the day prior to the experiment, 1321N1-hP2X7 or HEK293-rP2X7 cells were released into suspension with calcium-free PBS+Versene and washed by centrifugation with calcium-free PBS to remove the Versene. Cells were resuspended in growth medium at a density of 2.5×10^5 cells/mL and seeded into black walled, clear bottom 96 well plates (50,000 cells/well) approximately 18 hr prior to intracellular calcium flux experiments.
On the day of the experiment, plates were washed with FLIPR buffer (calcium- and magnesium-free Hank's Balanced Salt Solution (HBSS) supplemented with 10 mM Hepes, 2.5 mM probenecid and 2 mM calcium chloride) using a BIO-TEK 96 channel plate washer and incubated with […] fluo-3 dye at 37° C. for one hr. The dye was then removed by plate washing and the cells were allowed to equilibrate for 20 min at room temperature with antagonist or vehicle (FLIPR buffer). Agonist (100 μM BzATP final concentration for hP2X7; 5 μM BzATP final concentration or rP2X7) was added online with the FLIPR and fluorescence measurements made at 1 sec intervals for 60 sec followed by 3 sec intervals for a further 4 min (5 min total). A final addition of 5 μM ionomycin was made and the maximal BzATP-evoked fluorescence normalized to the maximal ionomycin-evoked fluorescence.

SMILES | pKi
O=C1CC(c2cccc(F)c2)C(C(=O)Nc2cccc3[nH]ccc23)=CN1 (centres unmarked) [Compound 1, 4-(3-Fluoro-phenyl)-6-oxo-1,4,5,6-tetrahydro-pyridine-3-carboxylic acid (1H-indol-4-yl)-amide] | 5.86
O=C1CC(c2cccc(F)c2)C(C(=O)Nc2ccc3cc[nH]c3c2)=CN1 (centres unmarked) [Compound 2, 4-(3-Fluoro-phenyl)-6-oxo-1,4,5,6-tetrahydro-pyridine-3-carboxylic acid (1H-indol-6-yl)-amide] | 5.24
Cc1cc2ccn(CCO)c2cc1NC(=O)C1=CNC(=O)C[C@H]1c1ccc(F)cc1 [Compound 9, (S)-4-(4-Fluoro-phenyl)-6-oxo-1,4,5,6-tetrahydro-pyridine-3-carboxylic acid [1-(2-hydroxy-ethyl)-5-methyl-1H-indol-6-yl]-amide] | 7.71
O=C1C[C@@H](c2cccc(F)c2)C(C(=O)Nc2cc3c(cc2Br)CCC(=O)N3)=CN1 [Compound 11, (S)-4-(3-Fluoro-phenyl)-6-oxo-1,4,5,6-tetrahydro-pyridine-3-carboxylic acid (6-bromo-2-oxo-1,2,3,4-tetrahydro-quinolin-7-yl)-amide] | 5.415
Cc1ccc2ncccc2c1NC(=O)C1=CNC(=O)C[C@H]1c1cccc(F)c1 [Compound 12, (S)-4-(3-Fluoro-phenyl)-6-oxo-1,4,5,6-tetrahydro-pyridine-3-carboxylic acid (6-methyl-quinolin-5-yl)-amide] | 7.695
CN1C(=O)CCc2cc(Br)c(NC(=O)C3=CNC(=O)C[C@H]3c3ccc(F)cc3)cc21 [Compound 13, (S)-4-(4-Fluoro-phenyl)-6-oxo-1,4,5,6-tetrahydro-pyridine-3-carboxylic acid (6-bromo-1-methyl-2-oxo-1,2,3,4-tetrahydro-quinolin-7-yl)-amide] | 6.9
CCc1cc2ccn(CCO)c2cc1NC(=O)C1=CNC(=O)C[C@H]1c1ccc(F)cc1 [Compound 16, (S)-4-(4-Fluoro-phenyl)-6-oxo-1,4,5,6-tetrahydro-pyridine-3-carboxylic acid [5-ethyl-1-(2-hydroxy-ethyl)-1H-indol-6-yl]-amide] | 7.575
Cc1cc2c(cc1NC(=O)C1=CNC(=O)C[C@H]1c1ccc(F)cc1)N(C)C(=O)CC2 [Compound 18, (S)-4-(4-Fluoro-phenyl)-6-oxo-1,4,5,6-tetrahydro-pyridine-3-carboxylic acid (1,6-dimethyl-2-oxo-1,2,3,4-tetrahydro-quinolin-7-yl)-amide] | 7.16
O=C1C[C@@H](c2ccc(F)cc2)C(C(=O)Nc2cc3c(cc2Br)CCC(=O)N3CCO)=CN1 [Compound 19, (S)-4-(4-Fluoro-phenyl)-6-oxo-1,4,5,6-tetrahydro-pyridine-3-carboxylic acid [6-bromo-1-(2-hydroxy-ethyl)-2-oxo-1,2,3,4-tetrahydro-quinolin-7-yl]-amide] | 5.535
Cc1cc2ncccc2cc1NC(=O)C1=CNC(=O)C[C@H]1c1cccc(F)c1 [Compound 20, (S)-4-(3-Fluoro-phenyl)-6-oxo-1,4,5,6-tetrahydro-pyridine-3-carboxylic acid (7-methyl-quinolin-6-yl)-amide] | 6.825
O=C1C[C@@H](c2cccc(F)c2)C(C(=O)Nc2cc3c(cc2Br)OCC(=O)N3)=CN1 [Compound 21, (S)-4-(3-Fluoro-phenyl)-6-oxo-1,4,5,6-tetrahydro-pyridine-3-carboxylic acid (7-bromo-3-oxo-3,4-dihydro-2H-benzo[1,4]oxazin-6-yl)-amide] | 5.925
CN1C(=O)COc2cc(Br)c(NC(=O)C3=CNC(=O)C[C@H]3c3cccc(F)c3)cc21 [Compound 22, (S)-4-(3-Fluoro-phenyl)-6-oxo-1,4,5,6-tetrahydro-pyridine-3-carboxylic acid (7-bromo-4-methyl-3-oxo-3,4-dihydro-2H-benzo[1,4]oxazin-6-yl)-amide] | 6.905
Cc1cc2c(cc1NC(=O)C1=CNC(=O)C[C@H]1c1ccc(F)cc1)N(C)C(=O)CO2 [Compound 23, (S)-4-(4-Fluoro-phenyl)-6-oxo-1,4,5,6-tetrahydro-pyridine-3-carboxylic acid (4,7-dimethyl-3-oxo-3,4-dihydro-2H-benzo[1,4]oxazin-6-yl)-amide] | 6.73
Cc1cc2c(cc1NC(=O)C1=CNC(=O)C[C@H]1c1cccc(F)c1)N(C)C(=O)CO2 [Compound 24, (S)-4-(3-Fluoro-phenyl)-6-oxo-1,4,5,6-tetrahydro-pyridine-3-carboxylic acid (4,7-dimethyl-3-oxo-3,4-dihydro-2H-benzo[1,4]oxazin-6-yl)-amide] | 7.015

The next lines start with the values.

pKi | SMILES
6.953 | O=C1C[C@@H](c2cccc(F)c2)C(C(=O)Nc2ccc3ncccc3c2Br)=CN1 [Compound 4, (S)-4-(3-Fluoro-phenyl)-6-oxo-1,4,5,6-tetrahydro-pyridine-3-carboxylic acid (5-bromo-quinolin-6-yl)-amide]
5.345 | O=C1C[C@@H](c2ccc(F)cc2)C(C(=O)Nc2cccc3ncccc23)=CN1 [Compound 5, (S)-4-(4-Fluoro-phenyl)-6-oxo-1,4,5,6-tetrahydro-pyridine-3-carboxylic acid quinolin-5-ylamide]
7.135 | O=C1C[C@@H](c2ccc(F)cc2)C(C(=O)Nc2ccc3ncccc3c2Br)=CN1 [Compound 6, (S)-4-(4-Fluoro-phenyl)-6-oxo-1,4,5,6-tetrahydro-pyridine-3-carboxylic acid (5-bromo-quinolin-6-yl)-amide]
6.673 | CCc1cc2ncccc2cc1NC(=O)C1=CNC(=O)C[C@H]1c1ccc(F)cc1 [Compound 7, (S)-4-(4-Fluoro-phenyl)-6-oxo-1,4,5,6-tetrahydro-pyridine-3-carboxylic acid (7-ethyl-quinolin-6-yl)-amide]
7.69 | CCc1c(NC(=O)C2=CNC(=O)C[C@H]2c2ccc(F)cc2)ccc2ncccc12 [Compound 8, (S)-4-(4-Fluoro-phenyl)-6-oxo-1,4,5,6-tetrahydro-pyridine-3-carboxylic acid (5-ethyl-quinolin-6-yl)-amide]
6.645 | Cc1c(NC(=O)C2=CNC(=O)C[C@H]2c2cccc(F)c2)ccc2ncccc12 [Compound 10, (S)-4-(3-Fluoro-phenyl)-6-oxo-1,4,5,6-tetrahydro-pyridine-3-carboxylic acid (5-methyl-quinolin-6-yl)-amide]
6.425 | O=C1C[C@@H](c2ccc(F)cc2)C(C(=O)Nc2cccc3cnccc23)=CN1 [Compound 14, (S)-4-(4-Fluoro-phenyl)-6-oxo-1,4,5,6-tetrahydro-pyridine-3-carboxylic acid isoquinolin-5-ylamide]
7.46 | Cc1ccc2c(NC(=O)C3=CNC(=O)C[C@H]3c3ccc(F)cc3)cccc2n1 [Compound 15, (S)-4-(4-Fluoro-phenyl)-6-oxo-1,4,5,6-tetrahydro-pyridine-3-carboxylic acid (2-methyl-quinolin-5-yl)-amide]
6.805 | Cc1c(NC(=O)C2=CNC(=O)C[C@H]2c2ccc(F)cc2)ccc2ncccc12 [Compound 17, (S)-4-(4-Fluoro-phenyl)-6-oxo-1,4,5,6-tetrahydro-pyridine-3-carboxylic acid (5-methyl-quinolin-6-yl)-amide]
